From ChEMBL document CHEMBL1201862, “PubChem BioAssay data set” (2004)
Several values for one entry are separate records, joined by “and”; a condition that tells them apart may be missing. Equal values may be shown once.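 Each compound was tested at five concentrations against cells in 96-well plates for 48 hours. Here, GI50 denotes the concentration required for 50% inhibition of growth.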 Activity calls are given as the source filed them. Cut-off read from the data, not from the text of the source: active = GI50 up to about 1.1 µM and inactive = higher.

What was measured:
Experiment in all cases: NCI anticancer screen, dose series, 48 h
CAKI-1 = tested on: CAKI-1
HCT-116 = tested on: HCT-116
HL-60 = tested on: HL-60
K562 = tested on: K562
KM12 = tested on: KM12
NCI-H226 = tested on: NCI-H226
OVCAR-3 = tested on: OVCAR-3
OVCAR-8 = tested on: OVCAR-8
SF-268 = tested on: SF-268
SF-295 = tested on: SF-295
SK-MEL-2 = tested on: SK-MEL-2
SNB-19 = tested on: SNB-19
SNB-75 = tested on: SNB-75
SW-620 = tested on: SW-620
TK-10 = tested on: TK-10

SMILES	GI50 (CAKI-1)	GI50 (HCT-116)	GI50 (HL-60)	GI50 (K562)	GI50 (KM12)	GI50 (NCI-H226)	GI50 (OVCAR-3)	GI50 (OVCAR-8)	GI50 (SF-268)	GI50 (SF-295)	GI50 (SK-MEL-2)	GI50 (SNB-19)	GI50 (SNB-75)	GI50 (SW-620)	GI50 (TK-10)
Cc1cc(N(CCC#N)CCC#N)ccc1/C=C1\N=C(c2cc([N+](=O)[O-])ccc2Cl)N(c2cccc(Cl)c2)C1=O	3.08 µM (inactive)	> 100 µM (inactive)	> 100 µM (inactive)	96.6 µM (inactive)	> 100 µM (inactive)	> 100 µM (inactive)	> 100 µM (inactive)	> 100 µM (inactive)	> 100 µM (inactive)	> 100 µM (inactive)	> 100 µM (inactive)	< 0.01 µM (active)	> 100 µM (inactive)	< 0.01 µM (active)	> 100 µM (inactive)
COC(=O)CSc1ccccc1	> 100 µM (inactive)	> 100 µM (inactive)	> 100 µM (inactive)	> 100 µM (inactive)	> 100 µM (inactive)		> 100 µM (inactive)	> 100 µM (inactive)	> 100 µM (inactive)	> 100 µM (inactive)	11.5 µM (inactive)	> 100 µM (inactive)	> 100 µM (inactive)	> 100 µM (inactive)	> 100 µM (inactive)
O=c1cc(-c2ccccc2)oc2cc(OCCSCCCCCCCCCCSCCOc3ccc4c(=O)cc(-c5ccccc5)oc4c3)ccc12	> 100 µM (inactive)	> 100 µM (inactive)	> 100 µM (inactive)	> 100 µM (inactive)	> 100 µM (inactive)		> 100 µM (inactive)	> 100 µM (inactive)	74.3 µM (inactive)	> 100 µM (inactive)	> 100 µM (inactive)	51.2 µM (inactive)	> 100 µM (inactive)	> 100 µM (inactive)	> 100 µM (inactive)
COc1cc(Nc2cnc3ccc(C(F)(F)F)cc3n2)cc(OC)c1OC		45.8 µM (inactive)	9.71 µM (inactive)			> 100 µM (inactive)	> 100 µM (inactive)	> 100 µM (inactive)	84.5 µM (inactive)	5.53 µM (inactive)	24.7 µM (inactive)	> 100 µM (inactive)		71.8 µM (inactive)	38.1 µM (inactive)
COC(=O)CSc1nnc(-c2ccc(O)c([N+](=O)[O-])c2)[nH]1	> 100 µM (inactive)	> 100 µM (inactive)	> 100 µM (inactive)	> 100 µM (inactive)		> 100 µM (inactive)	> 100 µM (inactive)	> 100 µM (inactive)	> 100 µM (inactive)	> 100 µM (inactive)	> 100 µM (inactive)	> 100 µM (inactive)	> 100 µM (inactive)	> 100 µM (inactive)	> 100 µM (inactive)
O=C(O)c1[nH]c(C(=O)O)c(CC(F)(F)C(F)(F)C(F)(F)F)c1CC(F)(F)C(F)(F)C(F)(F)F	> 100 µM (inactive)	> 100 µM (inactive)	> 100 µM (inactive)	> 100 µM (inactive)	> 100 µM (inactive)	> 100 µM (inactive)	> 100 µM (inactive)	> 100 µM (inactive)	> 100 µM (inactive)	> 100 µM (inactive)		> 100 µM (inactive)	> 100 µM (inactive)	> 100 µM (inactive)	> 100 µM (inactive)
O=[N+]([O-])c1ccc(Cl)cc1C1SCc2nc3ccccc3n21 (stereo not given)	33 µM (inactive)	38.3 µM (inactive)	31 µM (inactive)	33.1 µM (inactive)	41.9 µM (inactive)		54.1 µM (inactive)	60.8 µM (inactive)	42.1 µM (inactive)	85.7 µM (inactive)	62.4 µM (inactive)	74.6 µM (inactive)	16.3 µM (inactive)	50.6 µM (inactive)	87.5 µM (inactive)
COC(=O)/C(=C/c1ccc(OC)cc1)NC(=O)c1ccccc1	> 100 µM (inactive)	> 100 µM (inactive)		> 100 µM (inactive)	> 100 µM (inactive)	> 100 µM (inactive)		> 100 µM (inactive)	> 100 µM (inactive)	> 100 µM (inactive)	> 100 µM (inactive)	> 100 µM (inactive)	> 100 µM (inactive)	> 100 µM (inactive)	> 100 µM (inactive)
O=C1/C(=C\c2ccccc2)C2/C(=C\c3ccccc3)C(=O)/C(=C\c3ccccc3)C2/C1=C\c1ccccc1 (stereo not given)	2.67 µM (inactive)		0.608 µM (active)	0.565 µM (active)	1.42 µM (inactive)		1.73 µM (inactive)	0.412 µM (active)	2.58 µM (inactive)	2.07 µM (inactive)	1.81 µM (inactive)		17.3 µM (inactive)	1.55 µM (inactive)	3.87 µM (inactive)
Nc1ncnc2c1ncn2C1CC(OCc2ccccc2[N+](=O)[O-])C(CO)O1 (stereo not given)		17.4 µM (inactive)	12.7 µM (inactive)	16.1 µM (inactive)	20 µM (inactive)	11.8 µM (inactive)	30.1 µM (inactive)	23.8 µM (inactive)	28.2 µM (inactive)	15.6 µM (inactive)	22.4 µM (inactive)	46.1 µM (inactive)		36 µM (inactive)	30.8 µM (inactive)
CCCCOC1CC2(c3ccc(OC)cc3)C(=O)c3ccccc3N2O1 (stereo not given)	41.6 µM (inactive)	37.5 µM (inactive)		26.5 µM (inactive)	62.2 µM (inactive)	> 10 µM (inactive)	56.1 µM (inactive)	82.2 µM (inactive)	50.5 µM (inactive)	42.1 µM (inactive)	71.6 µM (inactive)	> 10 µM (inactive)	> 100 µM (inactive)	65 µM (inactive)	> 100 µM (inactive)
COc1ccc(/C=c2/sc3n(c2=O)NC(c2ccc(Cl)cc2)NN=3)cc1 (stereo not given)	> 100 µM (inactive)	> 100 µM (inactive)		> 100 µM (inactive)	> 100 µM (inactive)	> 100 µM (inactive)	> 100 µM (inactive)	> 100 µM (inactive)	> 100 µM (inactive)	> 100 µM (inactive)	> 100 µM (inactive)	> 100 µM (inactive)	23.1 µM (inactive)	> 100 µM (inactive)	> 100 µM (inactive)
O=C(O)Cn1c(=O)[nH]c(=O)c2c1ncn2Cc1ccccc1	> 100 µM (inactive)	> 100 µM (inactive)		> 100 µM (inactive)	> 100 µM (inactive)	> 100 µM (inactive)	> 100 µM (inactive)	> 100 µM (inactive)	> 100 µM (inactive)		> 100 µM (inactive)	> 100 µM (inactive)	> 100 µM (inactive)	> 100 µM (inactive)	> 100 µM (inactive)
CCCCCC(=O)Cc1cc(OC)cc2c1C(=O)Oc1cc(O)c(C(=O)O)c(CC(=O)CCCCC)c1O2	> 100 µM (inactive)	26 µM (inactive)	38.9 µM (inactive)	30.6 µM (inactive)	46.5 µM (inactive)	> 100 µM (inactive)	24 µM (inactive)	47.1 µM (inactive)	35.2 µM (inactive)	55.3 µM (inactive)			55.7 µM (inactive)	> 100 µM (inactive)	63.4 µM (inactive)
C=CCN1/C(=C2\SC(=S)N(c3ccc(C)cc3)C2=O)Sc2c1nc[nH]c2=O	> 100 µM (inactive)	> 100 µM (inactive)	> 100 µM (inactive)	> 100 µM (inactive)		> 100 µM (inactive)	> 100 µM (inactive)	> 100 µM (inactive)	> 100 µM (inactive)	88.7 µM (inactive)	43.3 µM (inactive)	> 100 µM (inactive)		65.3 µM (inactive)	> 100 µM (inactive)
Nc1nnc2c(-c3ccccc3)n[nH]c2n1	17 µM (inactive)	> 100 µM (inactive)	9.4 µM (inactive)	39.9 µM (inactive)	23.2 µM (inactive)	46 µM (inactive)	> 100 µM (inactive)	49.7 µM (inactive)	17.1 µM (inactive)	67 µM (inactive)	90.2 µM (inactive)	57.1 µM (inactive)		54.7 µM (inactive)	23 µM (inactive)
CC(C)OP(=S)(NC(=S)c1ccccc1)OC(C)C	> 100 µM (inactive)	> 100 µM (inactive)		> 100 µM (inactive)	> 100 µM (inactive)	> 100 µM (inactive)	> 100 µM (inactive)	> 100 µM (inactive)	> 100 µM (inactive)	76.2 µM (inactive)	> 100 µM (inactive)	> 100 µM (inactive)	> 100 µM (inactive)	> 100 µM (inactive)	> 100 µM (inactive)
NCCCC1NC(=O)/C(=C(O)/C=C/C2CCC[C@@H]2CC2SCCS2)C1=O (stereo not given in full)		> 100 µM (inactive)	23.3 µM (inactive)	31.2 µM (inactive)	> 100 µM (inactive)	71.8 µM (inactive)	> 100 µM (inactive)	> 100 µM (inactive)	> 100 µM (inactive)	> 100 µM (inactive)	> 100 µM (inactive)	> 100 µM (inactive)	> 100 µM (inactive)	57 µM (inactive)	> 100 µM (inactive)
COC(=O)CC(C(C(C)=O)C(=O)OCc1ccccc1)N1C(=O)OC(c2ccccc2)C1c1ccccc1 (stereo not given)	81.1 µM (inactive) and 83.4 µM (inactive)	39.3 µM (inactive) and 24.2 µM (inactive)	37.7 µM (inactive) and 32.2 µM (inactive)	68.5 µM (inactive) and 71.3 µM (inactive)	42 µM (inactive) and 35.6 µM (inactive)		29.6 µM (inactive) and 17.4 µM (inactive)	70.3 µM (inactive) and 71.1 µM (inactive)	40.7 µM (inactive) and 54.5 µM (inactive)	19.5 µM (inactive) and 30.8 µM (inactive)	61.5 µM (inactive) and 83.4 µM (inactive)			> 100 µM (inactive)	> 100 µM (inactive)
